Assay results reported in the supplement of paper PMC4862054.

What was measured:
Test in all cases: drug sensitivity score (DSS), CellTiter-Blue viability (DSS (AUC-based score)); higher = stronger viability inhibition; extreme values may be limits of the assay
Conditions in all cases: incubation time: 72 h
MDA-MB-453 = system: MDA-MB-453
Method: (§1)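 DSRT with the CellTiter-Blue (resazurin reduction) viability readout, fluorescence 560/590 nm, 72 h incubation. Plates were normalised to DMSO and benzethonium chloride controls. DSS is computed from the area under the fitted dose-response curve (5 or 9 concentrations).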

Hs578T = system: Hs578T
Method: as §1

CAL-85-1 = system: CAL-85-1
Method: as §1

BT-474 = system: BT-474
Method: as §1

DU-4475 = system: DU-4475
Method: as §1

HCC1937 = system: HCC1937
Method: as §1

HDQ-P1 = system: HDQ-P1
Method: as §1

HCC1143 = system: HCC1143
Method: as §1

SK-BR-3 = system: SK-BR-3
Method: as §1

MFM-223 = system: MFM-223
Method: as §1

BT-549 = system: BT-549
Method: as §1

CAL-51 = system: CAL-51
Method: as §1

HCC1599 = system: HCC1599
Method: as §1

MDA-MB-231 = system: MDA-MB-231
Method: as §1

CAL-148 = system: CAL-148
Method: as §1

MDA-MB-468 = system: MDA-MB-468
Method: as §1

CAL-120 = system: CAL-120
Method: as §1

MDA-MB-436 = system: MDA-MB-436
Method: as §1

Work on `CCN(CC)CCCC(C)Nc1ccnc2cc(Cl)ccc12` (stereo not drawn) [Chloroquine] yielded a drug sensitivity score (MDA-MB-453) of 0, a drug sensitivity score (Hs578T) of 0 and a drug sensitivity score (CAL-85-1) of 0. The drug sensitivity score (BT-474) was 0, the drug sensitivity score (DU-4475) was 0 and the drug sensitivity score (HCC1937) was 0. It also gave a drug sensitivity score (HDQ-P1) of 0, a drug sensitivity score (HCC1143) of 0 and a drug sensitivity score (SK-BR-3) of 0. The drug sensitivity score (MFM-223) was 0, the drug sensitivity score (BT-549) was 0 and the drug sensitivity score (CAL-51) was 0. The drug sensitivity score (HCC1599) was 0, the drug sensitivity score (MDA-MB-231) was 0 and the drug sensitivity score (CAL-148) was 0. It also gave a drug sensitivity score (MDA-MB-468) of 0, a drug sensitivity score (CAL-120) of 0 and a drug sensitivity score (MDA-MB-436) of 0.
With `CO[C@@H]1[C@H](N(C)C(=O)c2ccccc2)C[C@H]2O[C@]1(C)n1c3ccccc3c3c4c(c5c6ccccc6n2c5c31)C(=O)NC4` [Midostaurin] the drug sensitivity score (MDA-MB-453) was 7.82, the drug sensitivity score (Hs578T) was 14.9 and the drug sensitivity score (CAL-85-1) was 3.45. It also gave a drug sensitivity score (BT-474) of 0, a drug sensitivity score (DU-4475) of 15.8 and a drug sensitivity score (HCC1937) of 10. The drug sensitivity score (HDQ-P1) was 10.9, the drug sensitivity score (HCC1143) was 4.83 and the drug sensitivity score (SK-BR-3) was 6.46. For the same molecule, the drug sensitivity score (MFM-223) was 4.68, the drug sensitivity score (BT-549) was 9.72 and the drug sensitivity score (CAL-51) was 19.4. For the same molecule, the drug sensitivity score (HCC1599) was 3.48, the drug sensitivity score (MDA-MB-231) was 9.28 and the drug sensitivity score (CAL-148) was 0. The drug sensitivity score (MDA-MB-468) was 9.5, the drug sensitivity score (CAL-120) was 8.21 and the drug sensitivity score (MDA-MB-436) was 8.07.
In the case of `C=CCN(/C=C1/C(=O)O[C@H](COC)[C@@]2(C)C1=C(O)C(=O)C1=C2[C@H](OC(C)=O)C[C@]2(C)C(=O)CC[C@@H]12)CC=C` [PX-866], the drug sensitivity score (MDA-MB-453) was 0, the drug sensitivity score (Hs578T) was 3.48 and the drug sensitivity score (CAL-85-1) was 0. The drug sensitivity score (BT-474) was 5.22, the drug sensitivity score (DU-4475) was 0 and the drug sensitivity score (HCC1937) was 5.15. It also gave a drug sensitivity score (HDQ-P1) of 3.65, a drug sensitivity score (HCC1143) of 3.95 and a drug sensitivity score (SK-BR-3) of 9.05. It also gave a drug sensitivity score (MFM-223) of 0, a drug sensitivity score (BT-549) of 0 and a drug sensitivity score (CAL-51) of 0. The drug sensitivity score (HCC1599) was 0, the drug sensitivity score (MDA-MB-231) was 5.75 and the drug sensitivity score (CAL-148) was 0. It also gave a drug sensitivity score (MDA-MB-468) of 8.51, a drug sensitivity score (CAL-120) of 2.93 and a drug sensitivity score (MDA-MB-436) of 0.
In the case of `CO[C@@]12[C@H](COC(N)=O)C3=C(C(=O)C(C)=C(N)C3=O)N1C[C@@H]1N[C@@H]12` [Mitomycin C], the drug sensitivity score (MDA-MB-453) was 5.18, the drug sensitivity score (Hs578T) was 4.97 and the drug sensitivity score (CAL-85-1) was 4.52. It also gave a drug sensitivity score (BT-474) of 3.1, a drug sensitivity score (DU-4475) of 3.3 and a drug sensitivity score (HCC1937) of 14.1. It also gave a drug sensitivity score (HDQ-P1) of 2.19, a drug sensitivity score (HCC1143) of 8.46 and a drug sensitivity score (SK-BR-3) of 9.21. It also gave a drug sensitivity score (MFM-223) of 4.69, a drug sensitivity score (BT-549) of 4.28 and a drug sensitivity score (CAL-51) of 2.74. The drug sensitivity score (HCC1599) was 8.65, the drug sensitivity score (MDA-MB-231) was 5.97 and the drug sensitivity score (CAL-148) was 5.96. It also gave a drug sensitivity score (MDA-MB-468) of 7.16, a drug sensitivity score (CAL-120) of 2.85 and a drug sensitivity score (MDA-MB-436) of 6.47.
Work on `C=CCn1c(=O)c2cnc(Nc3ccc(N4CCN(C)CC4)cc3)nc2n1-c1cccc(C(C)(C)O)n1` [MK1775] yielded a drug sensitivity score (MDA-MB-453) of 15.1, a drug sensitivity score (Hs578T) of 14.2 and a drug sensitivity score (CAL-85-1) of 11.1. It also gave a drug sensitivity score (BT-474) of 13, a drug sensitivity score (DU-4475) of 15 and a drug sensitivity score (HCC1937) of 15. It also gave a drug sensitivity score (HDQ-P1) of 13.6, a drug sensitivity score (HCC1143) of 9.62 and a drug sensitivity score (SK-BR-3) of 20.4. For the same molecule, the drug sensitivity score (MFM-223) was 12.4, the drug sensitivity score (BT-549) was 13.3 and the drug sensitivity score (CAL-51) was 16.2. The drug sensitivity score (HCC1599) was 7.82, the drug sensitivity score (MDA-MB-231) was 15 and the drug sensitivity score (CAL-148) was 18.3. It also gave a drug sensitivity score (MDA-MB-468) of 11.5, a drug sensitivity score (CAL-120) of 16 and a drug sensitivity score (MDA-MB-436) of 13.3.
For `Nc1ccn([C@@H]2O[C@H](CO)[C@@H](O)C2(F)F)c(=O)n1` [Gemcitabine], the drug sensitivity score (MDA-MB-453) was 11, the drug sensitivity score (Hs578T) was 7.89 and the drug sensitivity score (CAL-85-1) was 12. For the same molecule, the drug sensitivity score (BT-474) was 0, the drug sensitivity score (DU-4475) was 10.7 and the drug sensitivity score (HCC1937) was 16.2. For the same molecule, the drug sensitivity score (HDQ-P1) was 0, the drug sensitivity score (HCC1143) was 13.2 and the drug sensitivity score (SK-BR-3) was 13.4. For the same molecule, the drug sensitivity score (MFM-223) was 2.55, the drug sensitivity score (BT-549) was 6.97 and the drug sensitivity score (CAL-51) was 17.6. The drug sensitivity score (HCC1599) was 7.74, the drug sensitivity score (MDA-MB-231) was 7.17 and the drug sensitivity score (CAL-148) was 16.9. It also gave a drug sensitivity score (MDA-MB-468) of 16.1, a drug sensitivity score (CAL-120) of 14.7 and a drug sensitivity score (MDA-MB-436) of 9.62.
In the case of `C/C(=C\c1csc(C)n1)[C@@H]1C[C@@H]2O[C@]2(C)CCC[C@H](C)[C@H](O)[C@@H](C)C(=O)C(C)(C)[C@@H](O)CC(=O)N1` [Ixabepilone], the drug sensitivity score (MDA-MB-453) was 3.24, the drug sensitivity score (Hs578T) was 2.45 and the drug sensitivity score (CAL-85-1) was 2.08. The drug sensitivity score (BT-474) was 2.15, the drug sensitivity score (DU-4475) was 2.31 and the drug sensitivity score (HCC1937) was 5.41. The drug sensitivity score (HDQ-P1) was 0, the drug sensitivity score (HCC1143) was 1.78 and the drug sensitivity score (SK-BR-3) was 3.73. It also gave a drug sensitivity score (MFM-223) of 2.45, a drug sensitivity score (BT-549) of 3.35 and a drug sensitivity score (CAL-51) of 0.607. For the same molecule, the drug sensitivity score (HCC1599) was 1.1, the drug sensitivity score (MDA-MB-231) was 10.5 and the drug sensitivity score (CAL-148) was 2.58. It also gave a drug sensitivity score (MDA-MB-468) of 3.09, a drug sensitivity score (CAL-120) of 0.647 and a drug sensitivity score (MDA-MB-436) of 4.17.
`COc1cc(Nc2c(C#N)cnc3cc(OCCCN4CCN(C)CC4)c(OC)cc23)c(Cl)cc1Cl` [Bosutinib] gave a drug sensitivity score (MDA-MB-453) of 6.37, a drug sensitivity score (Hs578T) of 3.1 and a drug sensitivity score (CAL-85-1) of 5.55. The drug sensitivity score (BT-474) was 5.59, the drug sensitivity score (DU-4475) was 2.82 and the drug sensitivity score (HCC1937) was 6.37. The drug sensitivity score (HDQ-P1) was 6.6, the drug sensitivity score (HCC1143) was 5.05 and the drug sensitivity score (SK-BR-3) was 7.78. For the same molecule, the drug sensitivity score (MFM-223) was 4.68, the drug sensitivity score (BT-549) was 5.28 and the drug sensitivity score (CAL-51) was 3.35. The drug sensitivity score (HCC1599) was 3.68, the drug sensitivity score (MDA-MB-231) was 6.93 and the drug sensitivity score (CAL-148) was 7.34. It also gave a drug sensitivity score (MDA-MB-468) of 5.03, a drug sensitivity score (CAL-120) of 8.36 and a drug sensitivity score (MDA-MB-436) of 4.98.
With `CNC(=O)c1ccccc1Sc1ccc2c(/C=C/c3ccccn3)n[nH]c2c1` [Axitinib] the drug sensitivity score (MDA-MB-453) was 7.1, the drug sensitivity score (Hs578T) was 0 and the drug sensitivity score (CAL-85-1) was 4.41. For the same molecule, the drug sensitivity score (BT-474) was 0, the drug sensitivity score (DU-4475) was 6.24 and the drug sensitivity score (HCC1937) was 5.79. For the same molecule, the drug sensitivity score (HDQ-P1) was 4.73, the drug sensitivity score (HCC1143) was 2.06 and the drug sensitivity score (SK-BR-3) was 0. For the same molecule, the drug sensitivity score (MFM-223) was 11.4, the drug sensitivity score (BT-549) was 4.37 and the drug sensitivity score (CAL-51) was 6.1. The drug sensitivity score (HCC1599) was 0, the drug sensitivity score (MDA-MB-231) was 2.62 and the drug sensitivity score (CAL-148) was 5.17. It also gave a drug sensitivity score (MDA-MB-468) of 1.45, a drug sensitivity score (CAL-120) of 0 and a drug sensitivity score (MDA-MB-436) of 13.7.
`COc1ccc(S(=O)(=O)Nc2cccnc2Nc2ccc(O)cc2)cc1` [ABT-751] showed a drug sensitivity score (MDA-MB-453) of 17.9, a drug sensitivity score (Hs578T) of 17.3 and a drug sensitivity score (CAL-85-1) of 13.7. The drug sensitivity score (BT-474) was 7, the drug sensitivity score (DU-4475) was 10.1 and the drug sensitivity score (HCC1937) was 14.9. For the same molecule, the drug sensitivity score (HDQ-P1) was 12, the drug sensitivity score (HCC1143) was 9.7 and the drug sensitivity score (SK-BR-3) was 18.5. For the same molecule, the drug sensitivity score (MFM-223) was 8.15, the drug sensitivity score (BT-549) was 6.81 and the drug sensitivity score (CAL-51) was 11.8. It also gave a drug sensitivity score (HCC1599) of 5.55, a drug sensitivity score (MDA-MB-231) of 14.3 and a drug sensitivity score (CAL-148) of 10.7. The drug sensitivity score (MDA-MB-468) was 8.8, the drug sensitivity score (CAL-120) was 14.5 and the drug sensitivity score (MDA-MB-436) was 10.4.
With `Cc1cc(Nc2nc(N[C@@H](C)c3ncc(F)cn3)ncc2Cl)[nH]n1` [AZD1480] the drug sensitivity score (MDA-MB-453) was 0.912, the drug sensitivity score (Hs578T) was 0 and the drug sensitivity score (CAL-85-1) was 0. The drug sensitivity score (BT-474) was 0, the drug sensitivity score (DU-4475) was 0.841 and the drug sensitivity score (HCC1937) was 0. The drug sensitivity score (HDQ-P1) was 0, the drug sensitivity score (HCC1143) was 0 and the drug sensitivity score (SK-BR-3) was 0. The drug sensitivity score (MFM-223) was 7.5, the drug sensitivity score (BT-549) was 0 and the drug sensitivity score (CAL-51) was 0. The drug sensitivity score (HCC1599) was 1.53, the drug sensitivity score (MDA-MB-231) was 0 and the drug sensitivity score (CAL-148) was 0. The drug sensitivity score (MDA-MB-468) was 0, the drug sensitivity score (CAL-120) was 0 and the drug sensitivity score (MDA-MB-436) was 0.
